Data: US10953027B2, “Active agents and methods of their use for the treatment of metabolic disorders and nonalcoholic fatty liver disease” (Flagship Pioneering Innovations V, Inc., priority 2018, dated 2021)

How the values were obtained:
naïve CD4+ T cells = assay: Human regulatory T cell differentiation assay; format: cell-based; conditions: 6 days
Protocol: Peripheral blood mononuclear cells (PBMCs) from whole blood donated by health volunteers were separated by Ficoll-Paque gradient centrifugation and naïve CD4^+ T cells were subsequently isolated using magnet beads (EasySep™ Human Naïve CD4^+ T Cell Isolation Kit, Cambridge, Mass.). For regulatory T cell (Treg) differentiation assay, naïve CD4^+ T cells were cultured (1-10×10^4 cells) in CTS OpTmizer medium for 6 days and stimulated with 5 ng/ml TGF-β, 100 U/ml IL-2, and ImmunoCult™ Human […] T Cell Activator; Stemcell #10990) with/without our Compounds. Cell viability was determined using a viability dye (eBioscience Fixable Viability Dye eFluor 780: ThermoFisher 65-0865-14) at 1:500 dilution. The cells were gated for Treg, defined as Live, CD11c^−, CD14^−, CD19^−, CD8^−, CD4^+, CD3^+, CD25^+, FOXP3^+. Percent (%) Tregs were calculated as percentage of CD4^+, CD25^+, FOXP3^+ cells over total CD4^+ T cells. Statistical analysis was performed with GraphPad Prism Software Using One-Way ANOVA.

Mouse myocyte = Mouse myocyte lipolysis assay; format: cell-based
Protocol: Cells were obtained from ATCC and cultured in Dulbecco's Modified Eagle's medium (DMEM) containing 20% fetal bovine serum and 1% penicillin/streptomycin at 37° C. in an incubator with 5% CO2. Once the cells became confluent, they were seeded into a tissue culture treated 96 well plate. The next day, the medium containing DMEM with 2% equine serum was used to start differentiation. Once cells were fully differentiated, they were treated with indicated compounds.

Mouse 3T3-L1 cells = assay: Mouse adipocyte lipolysis assay; format: cell-based
Protocol: Once the cells became confluent, they were seeded into a tissue culture treated 96 well plate. […] After 14 days of differentiation, cells were treated with compounds of interest. After 24 hours post-treatment, the cell viability was assessed using CellTiter-Glo Luminescent Cell Viability Assay from Promega, and lipolysis was determined using Lipolysis Assay Kit from ZenBio.

Male DIO mice = assay: In vivo evaluation for glucose disposal and lipidemia in DIO mice (Example 11); conditions: 0.045% in HFD
Protocol: The DIO mice were prepared by feeding male C57BL/6 mice a high fat diet (HFD, Research Diets D12492) from 6-14 weeks of age. DIO mice were housed individually and maintained on the HFD through the duration of study. A twelve-hour light cycle was maintained with room temperature maintained at 22-25° C. All of the mice were acclimated to the facility for 5 days prior to starting the study.
Following 5 days of facility acclimation, DIO mice were randomized into 8 groups of 10 based on body weight and blood glucose for assignment to treatment, as shown in Table 9:
All treatments were administered admixed in HFD (Research Diets, New Brunswick N.J.) and were provided ad libitum for 30 days. Drinking water for group 7 was supplemented with 1, 3 Butanediol at 3% concentration.
Body weight was recorded at baseline and twice weekly thereafter. Feed and water intakes were recorded each Monday, Wednesday, and Friday.
Blood samples (<3 μL) were obtained one hour post dose by tail clip at baseline and weekly thereafter for measurement of fed blood glucose by StatStrip. Additional anti-coagulated blood samples (100 μl, EDTA di-potassium salt) were obtained by tail clip one hour post-dose at baseline, day 14 and day 30. Anti-coagulated samples were quick frozen and stored on dry ice.
Animals were subjected to a 16 hour fast for performance of an oral glucose tolerance test (OGTT) on day 28. Blood samples were obtained via tail clip just prior to (8 am) and 15, 30, 60, 90, and 120 minutes post-glucose load (2.0 g/kg, PO) for assay of whole blood glucose (StatStrip). Feed was returned following last sample.
Animals were terminated on day 30-31 using CO2 inhalation and induction of pneumothorax. Terminal blood samples were obtained by cardiac puncture. Whole blood was processed to serum and analyzed for serum cholesterol, triglycerides, high density lipoprotein (HDL), low density lipoprotein (LDL) and non-esterified fatty acids (NEFA) using AU480 clinical analyzer.
Organ weights (liver, spleen, subcutaneous fat, inguinal fat, abdominal fat, and epididymal fat) were recorded. Sections of each fat were frozen or fixed in 4% paraformaldehyde/PBS, pH 6.9; Fat samples were placed on dry ice. Fixed liver samples (4% paraformaldehyde) were sent to Premier Laboratories for H&E staining and scoring for steatosis, inflammation and fibrosis. Spleen samples were prepared in ice cold 5% bovine serum albumin (BSA) in PBS or 4% paraformaldehyde. Sections of brain, heart, lung, and small and large intestine were fixed in 10% formalin.
All data are represented as group mean±SEM. Data were analyzed using JMP (SAS software). All normalizations were calculated using terminal body weight.
Baseline differences among groups were identified using Tukey-Kramer Hsd<0.05. Treatment effects compared to control were determined using Oneway ANOVA (*, p<0.05) followed by Dunnett's test where appropriate.

[1] = system: Primary human subcutaneous adipocytes; assay: Glucose uptake in human subcutaneous adipocytes, insulin resistant model; format: cell-based
Protocol: As described above, primary human subcutaneous adipocytes were differentiated for two weeks prior to treatment. To induce an insulin resistant state, cells were treated in serum free Dulbecco's Modified Eagle Medium (high glucose) and […] for 24 hours. Cells were simultaneously treated with compounds diluted in DMSO for 24 hours. As described above, after 24 hours, media was exchanged for assay buffer and the compounds were added again but in the presence of approximately 1 nM insulin. Cells were washed and lysed after 2 hours and glucose uptake was measured. […] Statistical changes in glucose uptake were determined by way ANOVA and compared to DMSO.

[2] = system: Primary human subcutaneous adipocytes; assay: Glucose uptake in human subcutaneous adipocytes, insulin sensitive model; format: cell-based
Protocol: Primary human subcutaneous adipocytes (Zen Bio, Research Triangle Park, N.C.) were differentiated for two weeks prior to treatment. Cells were treated with indicated compounds diluted in (dimethyl-sulfoxide) DMSO in serum free medium for 24 hours in triplicate. After 24 hours, media was exchanged for assay buffer and the compounds were added again but in the presence of approximately 1 nM insulin. Glucose uptake was initiated with the addition of a cocktail containing 2-deoxyglucose and ^3H-2-deoxyglucose and allowed to incubate for 2 hours. Cells were washed, lysed and glucose uptake was measured as counts per well. As an assay control, 100 nM of insulin was used during the 2 hours of glucose uptake. […] Statistical changes in glucose uptake were determined by way ANOVA and compared to DMSO.

[3] = system: Human Peripheral Blood Monocytes (PBMCs); assay: Cytokine release from human PBMCs; format: cell-based; conditions: 100 μM, LPS, 24 hours
Protocol: Human donor blood (8 mL) was collected in sodium citrate CPT tubes and centrifuged at 1,600×g for 20 minutes at room temperature. […] PBMCs samples were centrifuged at 400×g for 10 minutes at 10° C. […] PBMCs were filtered through a 70 micron mesh to remove any cellular debris. […] PBMCs in a 96-well plate were rested for 30 minutes in a 37° C., 5% CO2 incubator, then subsequently treated with 10 μl of indicated compound. After 2 hours 10 μL of LPS (O111:B4) 1 mg/mL was added to test wells. After 24 hours of incubation at 37° C., 5% CO2, 100 μL of cell supernatant was collected and transferred to a 96-well plate (non-tissue treated, flat bottom). The plate was centrifuged at 350×g for 5 minutes at room temperature, and then the clear supernatant transferred to a new 96-well plate (non-tissue treated, flat bottom). The remaining cells were tested for viability using CellTiter-Glo® Luminescent Cell Viability Assay (Promega). The supernatant was analyzed for TNFα, IL-6 and IL-1β (kit LXSAHM-03; R&D Systems), using Luminex Immunoassay Technology (MAGPIX System). Cytokine levels of LPS treated DMSO control samples were set to 100%, and compound treated samples were expressed relative to this (Table 13).

CC(O)CC(=O)[O-].[Na+] (centres unmarked) [Sodium BHB] was tested, and the “Cell viability % DMSO” value (naïve CD4+ T cells; 2 mM) was “= (90%≥ ≤110%: =)”, the “Treg induction % DMSO” value (naïve CD4+ T cells; 2 mM) was “+ (110%> ≤130%: +)” and the “Cell viability % DMSO” value (naïve CD4+ T cells; 20 mM) was “− (<90%: −)”. For the same compound, the “Treg induction % DMSO” value (naïve CD4+ T cells; 20 mM) was “= (90%≥ ≤110%: =)”, the “Free glycerol % DMSO” value (Mouse myocyte; 0.2 mM) was “++ (50> <70%: ++)” and the “Free glycerol % DMSO” value (Mouse myocyte; 2 mM) was “++ (50> <70%: ++)”. The “Lipolysis Free Fatty Acids % DMSO” value (Mouse 3T3-L1 cells; 0.2 mM, 24 hours) was “++ (50> ≤70%: ++)”, the “Lipolysis Glycerol % change” value (Mouse 3T3-L1 cells; 0.2 mM, 24 hours) was “+ (70%> ≤90%: +)” and the “cell viability (CellTiter-Glo)” value (Mouse 3T3-L1 cells; 0.2 mM, 24 hours post-treatment) was 86 % of DMSO control. For the same compound, the “Lipolysis Free Fatty Acids % DMSO” value (Mouse 3T3-L1 cells; 2 mM, 24 hours) was “++ (50> ≤70%: ++)”, the “Lipolysis Glycerol % change” value (Mouse 3T3-L1 cells; 2 mM, 24 hours) was “++ (50> ≤70%: ++)” and the “Lipolysis Free Fatty Acids % DMSO” value (Mouse 3T3-L1 cells; 20 mM, 24 hours) was “+ (70%> ≤90%: +)”. For the same compound, the “Lipolysis Glycerol % change” value (Mouse 3T3-L1 cells; 20 mM, 24 hours) was “++ (50> ≤70%: ++)”.
CN(CCOc1ccc(CC2SC(=O)NC2=O)cc1)c1ccccn1 (centres unmarked) [Rosiglitazone, rosiglitazone, reference compound] was tested, and the “Cell viability % DMSO” value (naïve CD4+ T cells; 10 uM) was “= (90%≥ ≤110%: =)”, the “Cell viability % DMSO” value (naïve CD4+ T cells; 100 uM) was “− (<90%: −)” and the activity at 10 µM (naïve CD4+ T cells; Homo sapiens, CD4+ T, 144 h, 10 uM, read-out: Treg induction % DMSO) was 90 to 110%. For the same compound, the activity at 100 µM (naïve CD4+ T cells; Homo sapiens, CD4+ T, 144 h, 100 uM, read-out: Treg induction % DMSO) was 90 to 110%, the activity at 10 µM (Mouse myocyte; Mus musculus, 10 μM, read-out: Free glycerol % DMSO) was 50 to 70% and the activity at 100 µM (Mouse myocyte; Mus musculus, 100 μM, read-out: Free glycerol % DMSO) was 50 to 70%. The activity at 100 µM (Mouse 3T3-L1 cells; Mus musculus, 3T3-L1, 100 μM, 24 hours, read-out: Lipolysis Free Fatty Acids % DMSO) was no more than 50%, the “Abdominal fat (% BW)” value (Male DIO mice) was “*1.6 ± 0.1 % BW” and the “Blood glucose (fed) change compared to baseline” value (Male DIO mice) was −22.8±3.7%. For the same compound, the “Epididymal fat (% BW)” value (Male DIO mice) was 4.1 ± 0.2 % BW, the “Inguinal fat (% BW)” value (Male DIO mice) was 0.78 ± 0.05 % BW and the “Subcutaneous fat (% BW)” value (Male DIO mice) was “*7.6 ± 0.5 % BW”. For the same compound, the “Fasting blood glucose levels (time 0 from OGTT)” value (Male DIO mice; 28 days, 16 hour fast) was 91.3 ± 2.5 mg/dL, the “change in body weight from baseline” value (Male DIO mice; 30 days) was 22.8±1.9% and the Cholesterol (Male DIO mice; terminal (fed) serum) was “*121.5 ± 7.3 mg/dL”. The HDL (Male DIO mice; terminal (fed) serum) was “*60.5 ± 3.0 mg/dL”, the LDL (Male DIO mice; terminal (fed) serum) was 8.0 ± 0.5 mg/dL and the NEFA (Male DIO mice; terminal (fed) serum) was “*0.71 ± 0.04 mEq/L”. It also gave a Triglycerides (Male DIO mice; terminal (fed) serum) of 91.3 ± 4.8 mg/dL.
For C[C@@H](O)CC(=O)O [(R) BHB], the “Insulin Resistant % DMSO (glucose uptake)” value (shortened to “Insulin Resistant % DMSO”) ([1]; 2 mM) was “+ (110%> ≤140%: +)”, the “Insulin Resistant % DMSO” value ([1]; 20 mM) was “= (50%> ≤110%: =)” and the “Insulin Sensitive % DMSO (glucose uptake)” value (from here on “Insulin Sensitive % DMSO”) ([2]; 2 mM) was “++ (140%≥ ≤200%: ++)”. For the same compound, the “Insulin Sensitive % DMSO” value ([2]; 20 mM) was “++ (140%≥ ≤200%: ++)”.
CCC(=O)O [Propionic acid] was tested, and the “Cell viability % DMSO” value (naïve CD4+ T cells; 3 mM) was “= (90%≥ ≤110%: =)”, the activity at 3000 µM (Mouse myocyte; Mus musculus, 3 mM, read-out: Free glycerol % DMSO) was 50 to 70% and the activity at 3000 µM (Mouse 3T3-L1 cells; Mus musculus, 3T3-L1, 3 mM, 24 hours, read-out: Lipolysis Free Fatty Acids % DMSO) was no more than 50%.
With O=C[C@@H](O)[C@H](O)[C@H](O)CO [arabinose] the “Insulin Resistant % DMSO” value ([1]; 0.5 mM) was “= (50%> ≤110%: =)”, the “Insulin Resistant % DMSO” value ([1]; 1 mM) was “= (50%> ≤110%: =)” and the “Insulin Sensitive % DMSO” value ([2]; 0.5 mM) was “= (50%> ≤110%: =)”. For the same compound, the “Insulin Sensitive % DMSO” value ([2]; 1 mM) was “++ (140%≥ ≤200%: ++)”, the “IL6 % DMSO control” value [3] was “+ ((+) 50%≥ <90% DMSO)” and the “ILβ % DMSO control” value [3] was “= ((=) 90%≥ <110% DMSO)”. For the same compound, the “TNFα % of DMSO control” value [3] was “+ ((+) 50%≥ <90% DMSO)”.
For C[C@@H](O)CC(=O)O [(R)-BHB], the insulin-mediated glucose uptake ([1]; insulin-resistant like state, compared to DMSO) was “significantly enhanced insulin-mediated glucose uptake” and the insulin-mediated glucose uptake ([2]; insulin sensitive model, compared to DMSO) was “significantly enhanced insulin-mediated glucose uptake”.
For O=C[C@H](O)[C@@H](O)[C@@H](O)CO [L-arabinose], the “Cell viability % DMSO” value (naïve CD4+ T cells; 0.5 mM) was “= (90%≥ ≤110%: =)”, the “Cell viability % DMSO” value (naïve CD4+ T cells; 1 mM) was “= (90%≥ ≤110%: =)” and the activity at 500 µM (naïve CD4+ T cells; Homo sapiens, CD4+ T, 144 h, 0.5 mM, read-out: Treg induction % DMSO) was 90 to 110%. The activity at 1000 µM (naïve CD4+ T cells; Homo sapiens, CD4+ T, 144 h, 1 mM, read-out: Treg induction % DMSO) was 90 to 110%, the activity at 500 µM (Mouse myocyte; Mus musculus, 0.5 mM, read-out: Free glycerol % DMSO) was 70 to 90% and the activity at 1000 µM (Mouse myocyte; Mus musculus, 1 mM, read-out: Free glycerol % DMSO) was 70 to 90%. The activity at 500 µM (Mouse 3T3-L1 cells; Mus musculus, 3T3-L1, 0.5 mM, 24 hours, read-out: Lipolysis Free Fatty Acids % DMSO) was 50 to 70% and the activity at 1000 µM (Mouse 3T3-L1 cells; Mus musculus, 3T3-L1, 1 mM, 24 hours, read-out: Lipolysis Free Fatty Acids % DMSO) was 50 to 70%.
